Reference: ChEMBL document CHEMBL1255495, “Experimental conditions that enhance potency of an antibacterial oligo-acyl-lysyl” (2010)
≈ marks a conversion by molar mass, not a printed value.

Experiments:
Format in all cases: functional
[1] = test system: Escherichia coli; assay: Antibacterial activity against Escherichia coli O157:H7 ATCC 43894 after 24 hrs at 37 degC by microdilution method; settings: O157:H7 ATCC 43894, 24 h
[2] = test system: Escherichia coli; assay: Antibacterial activity against Escherichia coli O157:H7 ATCC 43894 after 24 hrs at 48 degC by microdilution method; settings: O157:H7 ATCC 43894, 24 h
[3] = test system: Listeria monocytogenes; assay: Antibacterial activity against Listeria monocytogenes ATCC 19115 at pH 3.5 after 24 hrs by microdilution method; settings: ATCC 19115, 24 h
[4] = test system: Listeria monocytogenes; assay: Antibacterial activity against Listeria monocytogenes ATCC 19115 at pH 5.5 after 24 hrs by microdilution method; settings: ATCC 19115, 24 h
[5] = test system: Listeria monocytogenes; assay: Antibacterial activity against Listeria monocytogenes ATCC 19115 at pH 7 after 24 hrs by microdilution method; settings: ATCC 19115, 24 h
[6] = test system: Listeria monocytogenes; assay: Antibacterial activity against Listeria monocytogenes ATCC 19115 at pH 8.5 after 24 hrs by microdilution method; settings: ATCC 19115, 24 h
[7] = test system: Listeria monocytogenes; assay: Antibacterial activity against Listeria monocytogenes ATCC 19115 after 24 hrs by microdilution method in presence of 85 mM NaCl; settings: ATCC 19115, 24 h
[8] = test system: Listeria monocytogenes; assay: Antibacterial activity against Listeria monocytogenes ATCC 19115 after 24 hrs by microdilution method in presence of 170 mM NaCl; settings: ATCC 19115, 24 h
[9] = test system: Listeria monocytogenes; assay: Antibacterial activity against Listeria monocytogenes ATCC 19115 after 24 hrs by microdilution method in presence of 260 mM NaCl; settings: ATCC 19115, 24 h
[10] = test system: Listeria monocytogenes; assay: Antibacterial activity against Listeria monocytogenes ATCC 19115 after 24 hrs by microdilution method in presence of 515 mM NaCl; settings: ATCC 19115, 24 h
[11] = test system: Listeria monocytogenes; assay: Antibacterial activity against Listeria monocytogenes ATCC 19115 after 24 hrs by microdilution method in presence of 1030 mM NaCl; settings: ATCC 19115, 24 h
[12] = test system: Listeria monocytogenes; assay: Antibacterial activity against Listeria monocytogenes ATCC 19115 after 24 hrs by microdilution method in presence of 20 mM MgCl2; settings: ATCC 19115, 24 h
[13] = test system: Listeria monocytogenes; assay: Antibacterial activity against Listeria monocytogenes ATCC 19115 after 24 hrs by microdilution method in presence of 40 mM MgCl2; settings: ATCC 19115, 24 h
[14] = test system: Listeria monocytogenes; assay: Antibacterial activity against Listeria monocytogenes ATCC 19115 after 24 hrs by microdilution method in presence of 80 mM MgCl2; settings: ATCC 19115, 24 h
[15] = test system: Listeria monocytogenes; assay: Antibacterial activity against Listeria monocytogenes ATCC 19115 after 24 hrs by microdilution method in presence of 160 mM MgCl2; settings: ATCC 19115, 24 h
[16] = test system: Listeria monocytogenes; assay: Antibacterial activity against Listeria monocytogenes ATCC 19115 after 72 hrs at 4 degC by microdilution method; settings: ATCC 19115, 72 h
[17] = test system: Listeria monocytogenes; assay: Antibacterial activity against Listeria monocytogenes ATCC 19115 after 24 hrs at 25 degC by microdilution method; settings: ATCC 19115, 24 h
[18] = test system: Listeria monocytogenes; assay: Antibacterial activity against Listeria monocytogenes ATCC 19115 after 24 hrs at 37 degC by microdilution method; settings: ATCC 19115, 24 h
[19] = test system: Listeria monocytogenes; assay: Antibacterial activity against Listeria monocytogenes ATCC 19115 after 24 hrs at 48 degC by microdilution method; settings: ATCC 19115, 24 h
[20] = test system: Staphylococcus aureus; assay: Antibacterial activity against methicillin-resistant Staphylococcus aureus isolate 15903 at pH 5.5 after 24 hrs by microdilution method; settings: isolate 15903, 24 h
[21] = test system: Staphylococcus aureus; assay: Antibacterial activity against methicillin-resistant Staphylococcus aureus isolate 15903 at pH 7 after 24 hrs by microdilution method; settings: isolate 15903, 24 h
[22] = test system: Staphylococcus aureus; assay: Antibacterial activity against methicillin-resistant Staphylococcus aureus isolate 15903 at pH 8.5 after 24 hrs by microdilution method; settings: isolate 15903, 24 h
[23] = test system: Staphylococcus aureus; assay: Antibacterial activity against methicillin-resistant Staphylococcus aureus isolate 15903 after 24 hrs by microdilution method in presence of 85 mM NaCl; settings: isolate 15903, 24 h
[24] = test system: Staphylococcus aureus; assay: Antibacterial activity against methicillin-resistant Staphylococcus aureus isolate 15903 after 24 hrs by microdilution method in presence of 170 mM NaCl; settings: isolate 15903, 24 h
[25] = test system: Staphylococcus aureus; assay: Antibacterial activity against methicillin-resistant Staphylococcus aureus isolate 15903 after 24 hrs by microdilution method in presence of 260 mM NaCl; settings: isolate 15903, 24 h
[26] = test system: Staphylococcus aureus; assay: Antibacterial activity against methicillin-resistant Staphylococcus aureus isolate 15903 after 24 hrs by microdilution method in presence of 515 mM NaCl; settings: isolate 15903, 24 h
[27] = test system: Staphylococcus aureus; assay: Antibacterial activity against methicillin-resistant Staphylococcus aureus isolate 15903 after 24 hrs by microdilution method in presence of 1030 mM NaCl; settings: isolate 15903, 24 h
[28] = test system: Escherichia coli; assay: Ratio of MIC for Escherichia coli O157:H7 ATCC 43894 in presence of 85 mM NaClsto MIC for Escherichia coli O157:H7 ATCC 43894 at pH 8.5 after 24 hrs at 48 degC in presence of 85 mM NaCl
[29] = test system: Staphylococcus aureus; assay: Antibacterial activity against methicillin-resistant Staphylococcus aureus isolate 15903 after 24 hrs at 37 degC by microdilution method; settings: isolate 15903, 24 h

SMILES: CCCCCCCCCCCC(=O)N[C@@H](CCCCN)C(=O)NCCCCCCCC(=O)N[C@@H](CCCCN)C(=O)NCCCCCCCC(=O)N[C@@H](CCCCN)C(=O)NCCCCCCCC(=O)N[C@@H](CCCCN)C(=O)NCCCCCCCC(=O)N[C@@H](CCCCN)C(=O)NCCCCCCCC(=O)N[C@@H](CCCCN)C(=O)NCCCCCCCC(=O)N[C@@H](CCCCN)C(=O)NCCCCCCCC(=O)N[C@@H](CCCCN)C(N)=O
- MIC [1]: 3.1 µM (≈ 6.86 µg/mL)
- MIC [2]: 1.6 µM (≈ 3.54 µg/mL)
- MIC [3]: > 50 µM
- MIC [4]: 3.1 µM (≈ 6.86 µg/mL)
- MIC [5]: 1.6 µM (≈ 3.54 µg/mL)
- MIC [6]: 0.8 µM (≈ 1.77 µg/mL)
- MIC [7]: 1.6 µM
- MIC [8]: 3.1 µM
- MIC [9]: 3.1 µM
- MIC [10]: 6.3 µM
- MIC [11]: 12.5 µM
- MIC [12]: 3.1 µM
- MIC [13]: 6.3 µM
- MIC [14]: 12.5 µM
- MIC [15]: 25 µM
- MIC [16]: 3.1 µM (≈ 6.86 µg/mL)
- MIC [17]: 3.1 µM (≈ 6.86 µg/mL)
- MIC [18]: 1.6 µM (≈ 3.54 µg/mL)
- MIC [19]: 1.6 µM (≈ 3.54 µg/mL)
- MIC [20]: > 50 µM
- MIC [21]: 12.5 µM (≈ 27.7 µg/mL)
- MIC [22]: 1.6 µM (≈ 3.54 µg/mL)
- MIC [23]: 12.5 µM
- MIC [24]: 50 µM
- MIC [25]: > 50 µM
- MIC [26]: > 50 µM
- MIC [27]: > 50 µM
- Ratio [28]: 16
- MIC [29]: 12.5 µM (≈ 27.7 µg/mL)
